Patent US6235736A, “3-anilino-2-cycloalkenone derivatives” (Nikken Chemicals Co., Ltd., priority 1997, dated 2001)

Test system: TPA induced ear edema in mouse
Assay: TPA induced mouse ear edema assay
Format: in vivo, mouse (male ICR)
Conditions: 0.1 mg applied to right ear immediately after TPA; 6 hour
Method: Male ICR mice, 5 week old, were divided into groups of seven to eight. 2 μg of TPA (phorbor 12-ministate; Sigma Co.) in 20 μl acetone was applied to the inner and outer surface of right ear of each mouse to cause a reaction. 0.1 mg of compound was dissolved in 20 μl of a tetrahydrofuran-methanol mixture (mixture ratio 1:1) and the solution (20 μl) applied to the right ear immediately after TPA treatment. After 6 hour, the animals were sacrificed and right ear was punched out (.phi. […]) and weighed. The effect of comppund.was calculated as % inhibition as follows: [formula]

SMILES	% Inhibition of ear edema
COc1ccc(NC2=C(C)C(=O)CC2)cc1O[C@@H]1C[C@H]2CC[C@@H]1C2 (racemic) [Compound No. 44, 3-[3-[(1RS,2RS,4SR)-bicyclo[2.2. 1]hept-2-yloxy]-4-methoxyanilino]-2-methyl-2-cyclopenten-1-one]	74.1%
CCC1=C(Nc2ccc(OC)c(O[C@@H]3C[C@H]4CC[C@@H]3C4)c2)CCC1=O (racemic) [Compound No. 45, 3-[3-[(1RS,2RS,4SR)-bicyclo[2.2. 1]hept-2-yloxy]-4-methoxyanilino]-2-ethyl-2-cyclopenten-1-one]	75.3%
COc1ccc(N(C)C2=C(C)C(=O)CC2)cc1O[C@@H]1C[C@H]2CC[C@@H]1C2 (racemic) [Compound No. 47, 3-[3-[(1RS,2RS,4SR)-bicyclo[2.2. 1]hept-2-yloxy]4-methoxy-N-methylanilino]-2-methyl-2-cyclopenten-1-one]	59.9%
COc1ccc(N(Cc2ccccc2)C2=CC(=O)CC2)cc1O[C@@H]1C[C@H]2CC[C@@H]1C2 (racemic) [Compound No. 81, 3-[N-benzyl-3-[(1RS,2RS,4SR)-bicyclo[2.2. 1]hept-2-yloxy]4-methoxyanilino]-2-cyclopenten-1-one]	82.7%
COc1ccc(N(Cc2ccncc2)C2=CC(=O)CCC2)cc1O[C@@H]1C[C@H]2CC[C@@H]1C2 (racemic) [Compound No. 85, 3-[3-[(1RS,2RS,4SR)-bicyclo[2.2. 1]hept-2-yloxy]4-methoxy-N-(4-pyridylmethyl)anilino]-2-cyclohexen-1-one]	70.3%
COc1ccc(N(Cc2ccc3ccccc3n2)C2=CC(=O)CC2)cc1O[C@@H]1C[C@H]2CC[C@@H]1C2 (relative stereo) [Compound No. 82, 3-[3-[(1RS,2RS,4SR)-bicyclo[2.2. 1]hept-2-yloxy]4-methoxy-N-(2-quinolinemethyl)anilino]-2-cyclopenten-1-one]	84.4%

Test system: Type IV PDE
Assay: PDE IV inhibitory activity (isozyme partially purified from rat neutrophils, 3H-cAMP substrate)
Format: biochemical
Conditions: rat neutrophil PDE IV, 30° C., 30 minutes, read-out: PDE IV inhibiting action IC50
Method: Type I, III, IV, and V PDE isozymes were prepared to study the PDE inhibitory activities of and selectivities with the compound of the invention [Trends Pharmacol Sci., 12, 19-27 (1991)]. Type I PDE was purchased from Sigma Corp. Type III, IV, and V PDE isozymes were partially purified from platelets (Type III and V) or neutrophils (Type IV) collected from rats. Each enzyme source was homogenized in a buffer (pH 6.5) containing 20 mM bisTris, 2 mM EDTA (i.e., ethlenediamine tetraacetate), 2-mercaptoethanol, 0.001 mM pepstatin and 0.01 mM leupeptin and was centrifuged at 30000×G for 30 minutes to obtain a supernatant, which was applied to an ion exchange column (Q-sepharose first flow, Pharmacia Corp.) and was eluted with 0 to 1M sodium acetate. Partially purified isozymes were identified by observing the inhibitory effects of conventional inhibitors.
Each PDE isozyme and the test compound dissolved in DMSO (i.e., dimethylsulfoxide) were added to 50 mM Tris--HCI buffer containing 5 mM magnesium chloride. ^3 H-cAMP (for type III and IV PDE) or ^3 H-cGMP (for type I and V PDE) were added as substrates and were reacted at 30° C. for 30 minutes. The reaction was terminated by placing the test tube in boiling water of 100° C. for 5 minutes. The nucleotides formed by PDE were broken down to ^3 H-adenosine or ^3 H-guanosine by 5'-nucleotidase. The substrate and reaction product were separated through an ion-exchange column (i.e., QAE sephadex, Pharmacia Corp.)
The eluted ^3 -H-nucleoside was measured for its radioactivity by a liquid scintillation counter. The inhibitory activities of the compound of the present invention are shown by the IC50 value (M). Further, the inhibitory activities of the test samples against type I, III, and V PDE are 1/10 or less than that against Type IV PDE.

SMILES	IC50
COc1ccc(NC2=C(C)C(=O)CC2)cc1O[C@@H]1C[C@H]2CC[C@@H]1C2 (racemic) [Compound No. 44, 3-[3-[(1RS,2RS,4SR)-bicyclo[2.2. 1]hept-2-yloxy]-4-methoxyanilino]-2-methyl-2-cyclopenten-1-one]	220 nM
CCC1=C(Nc2ccc(OC)c(O[C@@H]3C[C@H]4CC[C@@H]3C4)c2)CCC1=O (racemic) [Compound No. 45, 3-[3-[(1RS,2RS,4SR)-bicyclo[2.2. 1]hept-2-yloxy]-4-methoxyanilino]-2-ethyl-2-cyclopenten-1-one]	80 nM
COc1ccc(NC2=C(C)C(=O)CCC2)cc1O[C@@H]1C[C@H]2CC[C@@H]1C2 (racemic) [Compound No. 46, 3-[3-[(1RS,2RS,4SR)-bicyclo[2.2. 1]hept-2-yloxy]-4-methoxyanilino]-2-methyl-2-cyclohexen-1-one]	260 nM
COc1ccc(N(C)C2=C(C)C(=O)CC2)cc1O[C@@H]1C[C@H]2CC[C@@H]1C2 (racemic) [Compound No. 47, 3-[3-[(1RS,2RS,4SR)-bicyclo[2.2. 1]hept-2-yloxy]4-methoxy-N-methylanilino]-2-methyl-2-cyclopenten-1-one]	1600 nM
COc1ccc(N(Cc2ccccc2)C2=CC(=O)CC2)cc1O[C@@H]1C[C@H]2CC[C@@H]1C2 (racemic) [Compound No. 81, 3-[N-benzyl-3-[(1RS,2RS,4SR)-bicyclo[2.2. 1]hept-2-yloxy]4-methoxyanilino]-2-cyclopenten-1-one]	1000 nM
COc1ccc(N(Cc2ccncc2)C2=CC(=O)CCC2)cc1O[C@@H]1C[C@H]2CC[C@@H]1C2 (racemic) [Compound No. 85, 3-[3-[(1RS,2RS,4SR)-bicyclo[2.2. 1]hept-2-yloxy]4-methoxy-N-(4-pyridylmethyl)anilino]-2-cyclohexen-1-one]	3600 nM
COc1ccc(N(Cc2ccc3ccccc3n2)C2=CC(=O)CC2)cc1O[C@@H]1C[C@H]2CC[C@@H]1C2 (relative stereo) [Compound No. 82, 3-[3-[(1RS,2RS,4SR)-bicyclo[2.2. 1]hept-2-yloxy]4-methoxy-N-(2-quinolinemethyl)anilino]-2-cyclopenten-1-one]	530 nM
COc1ccc(NC2=CC(=O)CC(C)(C)C2)cc1OC1CCCC1 [Compound No. 3, 3-(3-cycloientyloxy-4-methoxyanilino)-5,5-dimethyl-2-cyclohexen-1-one]	4900 nM
COc1ccc(NC2=C(C)C(=O)CC2)cc1OC1CCCC1 [Compound No. 4, 3-(3-cyclopentyloxy-4-methoxyanilino)-2-methyl-2-cyclopenten-1-one]	390 nM
COc1ccc(NC2=CC(=O)CC(C)C2)cc1OC1CCCC1 (stereo not shown) [Compound No. 5, 3-(3-cycloientyloxy-4-methoxyanilino)-5-methyl-2-cyclohexen-1-one]	2200 nM
COc1ccc(NC2=C(Cl)C(=O)CC2)cc1OC1CCCC1 [Compound No. 6, 2-chloro-3-(3-cyclopentyloxy-4-methoxyanilino)-2-cyclopenten-1-one]	540 nM
COc1ccc(NC2=CC(=O)CC2)cc1OCCc1ccccc1 [Compound No. 11, 3-(4-methoxy-3-phenethyloxyanilino)-2-cyclopenten-1-one]	4000 nM
COc1ccc(NC2=CC(=O)CC2)cc1OCC1CC1 [Compound No. 15, 3-(3-cyclopropylmethoxy-4-methoxyanilino)-2-cyclopenten-1-one]	7100 nM
CCCCOc1cc(NC2=C(C)C(=O)CC2)ccc1OC [Compound No. 18, 3-(3-butoxy-4-methoxyanilino)-2-methyl-2-cyclopenten-1-one]	1700 nM
COc1ccc(NC2=CC(=O)CCC2)cc1OCc1ccccc1 [Compound No. 20, 3-(3-benzyloxy-4-methoxyanilino)-2-cyclohexen-1-one]	44000 nM
COc1ccc(NC2=C(CN(C)C)C(=O)CC2)cc1OC1CCCC1 [Compound No. 24, 3-(3-cyclopentyloxy-4-methoxyanilino)-2-dimethylaminomethyl-2-cyclopenten-1-one]	61000 nM
COc1ccc(NC2=C(CN3CCOCC3)C(=O)CC2)cc1OC1CCCC1 [Compound No. 25, 3-(3-cyclopentyloxy-4-methoxyanilino)-2-(4-morpholinomethyl)-2-cyclopenten-1-one]	17000 nM

SMILES	IC50
COc1ccc(N(C(C)=O)C2=CC(=O)CC2)cc1OC1CCCC1 [Compound No. 29, 3-(N-acetyl-3-cyclopentyloxy-4-methoxyanilino)-2-cyclopenten-1-one]	48000 nM
COc1ccc(NC2=CC(=O)CC2)cc1OCCC1Cc2ccccc2C1 [Compound No. 34, 3-[3-[2-(2-indanyl)ethoxy]-4-methoxyanilino]-2-cyclopenten-1-one]	1800 nM
COc1ccc(NC2=CC(=O)CC2)cc1OC1CCOC1 (stereo not shown) [Compound No. 36, 3-[4-methoxy-3-(3-2,3,4,5-tetrahydrofuranyloxy)anilino]-2-cyclopenten-1-one]	8900 nM
COc1ccc(NC2=CC(=O)C(C)(C)CC2)cc1OC1CCCC1 [Compound No. 38, 3-(3-cyclopentyloxy-4-methoxyanilino)-6,6-dimethyl-2-cyclohexen-1-one]	17000 nM
COc1ccc(NC2=CC(=O)CC(c3ccccc3)C2)cc1OC1CCCC1 (stereo not shown) [Compound No. 39, 3-(3-cyclopentyloxy-4-methoxyanilino)-5-phenyl-2-cyclohexen-1-one]	3900 nM
COc1ccc(NC2=CC(=O)CC2)cc1OCC1CCCC1 [Compound No. 40, 3-(3-cyclopentylmethoxy-4-methoxyanilino)-2-cyclopenten-1-one]	4000 nM
COc1ccc(NC2=C(C)C(=O)CC2)cc1OCC1CCCC1 [Compound No. 41, 3-(3-cyclopentylmethoxy-4-methoxyanilino)-2-methyl-2-cyclopenten-1-one]	940 nM
COc1ccc(NC2=C(C)C(=O)CC2)cc1OCCc1cccc2ccccc12 [Compound No. 43, 3-[4-methoxy-3-[2-(1-naphthyl)ethoxy]anilino]-2-methyl-2-cyclopenten-1-one]	1300 nM
COc1ccc(NC2=CC(=O)CC2)cc1OCC1CCC1 [Compound No. 51, 3-(3-cyclobutylmethoxy-4-methoxyanilino)-2-cyclopenten-1-one]	1900 nM
COc1ccc(NC2=C(C)C(=O)CC2)cc1OCC1CCC1 [Compound No. 52, 3-(3-cyclobutylmethoxy-4-methoxyanilino)-2-methyl-2-cyclopenten-1-one]	550 nM
COc1ccc(NC2=C(C)C(=O)CCC2)cc1OCC1CCCC1 [Compound No. 54, 3-(3-cyclopentylmethoxy-4-methoxyanilino)-2-methyl-2-cyclohexen-1-one]	730 nM
COc1ccc(NC2=C(Cc3ccccc3)C(=O)CCC2)cc1OC1CCCC1 [Compound No. 69, 2-benzyl-3-(3-cyclopentyloxy-4-methoxyanilino)-2-cyclohexen-1-one]	1100 nM
COc1ccc(N(C)C2=C(C)C(=O)CC2)cc1OC1CCCC1 [Compound No. 70, 3-(3-cyclopentyloxy-4-methoxy-N-methylanilino)-2-methyl-2-cyclopenten-1-one]	3100 nM
COc1ccc(N(Cc2ccccc2)C2=C(C)C(=O)CC2)cc1OC1CCCC1 [Compound No. 71, 3-(N-benzyl-3-cyclopentyloxy-4-methoxyanilino)-2-methyl-2-cyclopenten-1-one]	8200 nM
COc1ccc(N(Cc2ccc3ccccc3n2)C2=C(C)C(=O)CC2)cc1OC1CCCC1 [Compound No. 72, 3-[3-cyclopentyloxy-4-methoxy-N-(2-quinolylemethyl)anilino]-2-methyl-2-cyclopenten-1-one]	3000 nM
COc1ccc(N(Cc2ccc3ccccc3c2)C2=C(C)C(=O)CC2)cc1OC1Cc2ccccc2C1 [Compound No. 74, 3-[3-(2-indanyloxy)-4-methoxy-N-(2-naphthylmethyl)anilino]-2-methyl-2-cyclopenten-1-one]	3500 nM
COc1ccc(NC2=CC(=O)CC2)cc1OCCc1cccc2ccccc12 [compound 42, 3-[4-methoxy-3-[2-(1-naphthyl)ethoxy]anilino]-2-cyclopenten-1-one]	9600 nM
